Assay results from patent publication US20250034164A1, “NOVEL COMPOUND AND COMPOSITION FOR PREVENTING OR TREATING NEUROINFLAMMATORY BRAIN DISEASES COMPRISING SAME AS ACTIVE INGREDIENT” (KOREA INSTITUTE OF OCEAN SCIENCE & TECHNOLOGY, priority 2021, published 2025).

Test system: nitric oxide (NO) produced in mouse BV-2 microglia cells stimulated with LPS
Assay: NO production inhibition in LPS-stimulated BV-2 microglia cells (Griess reagent)
Format: cell-based
Conditions: LPS 200 ng/ml; for IC50: mouse BV-2 microglia cells, 24 h, read-out: NO inhibitory activity (IC50 value)
Experimental: BV-2 microglia cells were cultured in a humidified 5% CO2 incubator at 37° C. using a Dulbecco's modified Eagle medium supplemented with 5% fetal bovine serum and 1% penicillin/streptomycin at 100 units/mL.
In all experiments, the number of cells was 2.5×10^5 cell/ml, the cells were first treated with each of Compounds of Examples 1 to 25 by concentration (2.5 to 200 μg/ml), and LPS was diluted in medium and used at a concentration of 200 ng/ml. A cytotoxicity test was performed using MTT assay, and the MTT assay was performed by performing NO assay and injecting 30 μl of MTT at a concentration of 0.5 mg/ml into the cells in a microplate. After reacting for 2 hours in the incubator, formazan crystals were dissolved in 100 μl of DMSO, and the absorbance was measured using a Vmax microplate reader (Tencan Co., Switzerland) with a wavelength of 540 nm. In order to quantitatively measure the production of nitric oxide (NO), mouse BV-2 microglia cells were prepared in a microplate (96 well), and added with LPS (200 ng/ml) and Compounds by concentration (2.5 to 200 μg/ml). The cells reacted in an incubator for 24 h, and 50 μl of the supernatant reacted with a Griess reagent (a mixed solution of 1% sulfanilamide, 0.1% N-(1-naphthyl)-ethylenediamine dihydrochloride, and 2.5% H3PO4), and then the absorbance was measured using a Vmax 96-well microplate spectrophotometer with a wavelength of 550 nm.
In order to analyze the anti-inflammatory efficacy of Compound of Example 1, the concentration inhibitory effect of nitric oxide (NO) produced in mouse BV-2 microglia cells stimulated with LPS (200 ng/ml), a neuroinflammatory factor, was confirmed.
The neuroinflammation inhibitory effects of Compounds of Examples 2 to 25 were confirmed.
In order to analyze the anti-inflammatory efficacy of Compound 26 of Chemical Formula 2, the concentration inhibitory effect of nitric oxide (NO) produced in mouse BV-2 microglia cells stimulated with LPS (200 ng/ml), a neuroinflammatory factor, was confirmed. Compound 26 of Chemical Formula 2 was purchased from Santa Cruz biotechnology (CAS 79127-35-8) and the experiment was performed. As a result of treating Compound of Chemical Formula 2 at […], it was confirmed that the amount of nitric oxide (NO) was reduced, as shown in FIG. 37A.

`NC(=O)C1=C[C@H]2[C@@H]3C=CC2(O)C(=O)O[C@@H]3O1` (stereo in doubt) [Compound 26, (1S,4aS,5R,7aS)-5-hydroxy-8-oxo-1,4a,5,7a-tetrahydro-1,5-(epoxymethano)cyclopenta[c]pyran-3-carboxamide] was tested, and the “amount of nitric oxide (NO)” value (BV-2 cells, treated at 2.5 to 20 PM (FIG. 37A)) was “reduced”.

`CC(=O)OCC1=C[C@H]2[C@@H]3C=C[C@H]2C(=O)O[C@@H]3O1` [Compound 2, ((1S,4aS,5R,7aS)-8-oxo-1,4a,5,7a-tetrahydro-1,5-(epoxymethano)cyclopenta[c]pyran-3-yl)methyl acetate] was tested, and the IC50 was over 20 µM.

`COCC1=C[C@H]2[C@@H]3C=C[C@H]2C(=O)O[C@@H]3O1` [Compound 3, (1S,4aS,5R,7aS)-3-(methoxymethyl)-1,4a,5,7a-tetrahydro-1,5-(epoxymethano)cyclopenta[c]pyran-8-one] showed an IC50 of over 20 µM.

Compound `O=C(O)C1=C[C@H]2[C@@H]3C=C[C@H]2C(=O)O[C@@H]3O1` [Compound 5, (1S,4aS,5R,7aS)-8-oxo-1,4a,5,7a-tetrahydro-1,5-(epoxymethano)cyclopenta[c]pyran-3-carboxylic acid] has an IC50 of over 20 µM.

Work on `O=C(OCC1=C[C@H]2[C@@H]3C=C[C@H]2C(=O)O[C@@H]3O1)c1ccccc1` [Compound 7, ((1S,4aS,5R,7aS)-8-oxo-1,4a,5,7a-tetrahydro-1,5-(epoxymethano)cyclopenta[c]pyran-3-yl)methyl benzoate] yielded an IC50 of over 20 µM.

Work on `C=CCCCCCCCCC(=O)OCC1=C[C@H]2[C@@H]3C=C[C@H]2C(=O)O[C@@H]3O1` [Compound 8, ((1S,4aS,5R,7aS)-8-oxo-1,4a,5,7a-tetrahydro-1,5-(epoxymethano)cyclopenta[c]pyran-3-yl)methylundec-10-enoate] yielded an IC50 of over 20 µM.

`CCC(C)C(=O)OCC1=C[C@H]2[C@@H]3C=C[C@H]2C(=O)O[C@@H]3O1` (stereo partly drawn) [Compound 9, ((1S,4aS,5R,7aS)-8-oxo-1,4a,5,7a-tetrahydro-1,5-(epoxymethano)cyclopenta[c]pyran-3-yl)methyl 2-methyl butanoate] gave an IC50 of over 20 µM.

`Cc1ccc(C(=O)OCC2=C[C@H]3[C@@H]4C=C[C@H]3C(=O)O[C@@H]4O2)cc1` [Compound 10, ((1S,4aS,5R,7aS)-8-oxo-1,4a,5,7a-tetrahydro-1,5-(epoxymethano)cyclopenta[c]pyran-3-yl)methyl 4-methyl benzoate] was tested, and the IC50 was over 20 µM.

`COc1ccc(C(=O)OCC2=C[C@H]3[C@@H]4C=C[C@H]3C(=O)O[C@@H]4O2)cc1` [Compound 11, ((1S,4aS,5R,7aS)-8-oxo-1,4a,5,7a-tetrahydro-1,5-(epoxymethano)cyclopenta[c]pyran-3-yl)methyl 4-methoxybenzoate] gave an IC50 of over 20 µM.

`O=C(OCC1=C[C@H]2[C@@H]3C=C[C@H]2C(=O)O[C@@H]3O1)c1ccc(-c2ccccc2)cc1` [Compound 12, ((1S,4aS,5R,7aS)-8-oxo-1,4a,5,7a-tetrahydro-1,5-(epoxymethano)cyclopenta[c]pyran-3-yl)methyl [1,1′-biphenyl]-4-carboxylate] was tested, and the IC50 was over 20 µM.

`O=C(OCC1=C[C@H]2[C@@H]3C=C[C@H]2C(=O)O[C@@H]3O1)c1ccc2ccccc2c1` [Compound 13, ((1S,4aS,5R,7aS)-8-oxo-1,4a,5,7a-tetrahydro-1,5-(epoxymethano)cyclopenta[c]pyran-3-yl)methyl 2-naphthoate] was tested, and the IC50 was over 20 µM.

`C#CC(=O)OCC1=C[C@H]2[C@@H]3C=C[C@H]2C(=O)O[C@@H]3O1` [Compound 14, ((1S,4aS,5R,7aS)-8-oxo-1,4a,5,7a-tetrahydro-1,5-(epoxymethano)cyclopenta[c]pyran-3-yl)methyl propiolate] showed an IC50 of 1.4 µM.

Work on `C#CC/N=C/C1=C[C@H]2[C@@H]3C=C[C@H]2C(=O)O[C@@H]3O1` [Compound 15, (1S,4aS,5R,7aS)-3-((E)-(prop-2-yn-1-ylimino)methyl)-1,4a,5,7a-tetrahydro-1,5-(epoxymethano)cyclopenta[c]pyran-8-one] yielded an IC50 of 12.4 µM.

`O=C(OCC1=C[C@H]2[C@@H]3C=C[C@H]2C(=O)O[C@@H]3O1)c1cccc2c1-c1ccccc1C2=O` [Compound 16, ((1S,4aS,5R,7aS)-8-oxo-1,4a,5,7a-tetrahydro-1,5-(epoxymethano)cyclopenta[c]pyran-3-yl)methyl 9-oxo-9H-fluorene-4-carboxylate] was tested, and the IC50 was 3.8 µM.

With `O=C(OCC1=C[C@H]2[C@@H]3C=C[C@H]2C(=O)O[C@@H]3O1)c1cc2ccccc2o1` [Compound 17, ((1S,4aS,5R,7aS)-8-oxo-1,4a,5,7a-tetrahydro-1,5-(epoxymethano)cyclopenta[c]pyran-3-yl)methyl benzofuran-2-carboxylate] the IC50 was over 20 µM.

With `O=C(OCC1=C[C@H]2[C@@H]3C=C[C@H]2C(=O)O[C@@H]3O1)c1ccc(F)cc1` [Compound 18, ((1S,4aS,5R,7aS)-8-oxo-1,4a,5,7a-tetrahydro-1,5-(epoxymethano)cyclopenta[c]pyran-3-yl)methyl 4-fluorobenzoate] the IC50 was over 20 µM.

With `O=C(OCC1=C[C@H]2[C@@H]3C=C[C@H]2C(=O)O[C@@H]3O1)c1ccc(Cl)cc1` [Compound 19, ((1S,4aS,5R,7aS)-8-oxo-1,4a,5,7a-tetrahydro-1,5-(epoxymethano)cyclopenta[c]pyran-3-yl)methyl 4-chlorobenzoate] the IC50 was 14.5 µM.

For `O=C(OCC1=C[C@H]2[C@@H]3C=C[C@H]2C(=O)O[C@@H]3O1)c1ccc(I)cc1` [Compound 20, ((1S,4aS,5R,7aS)-8-oxo-1,4a,5,7a-tetrahydro-1,5-(epoxymethano)cyclopenta[c]pyran-3-yl)methyl 4-iodobenzoate], the IC50 was over 20 µM.

`O=C(OCC1=C[C@H]2[C@@H]3C=C[C@H]2C(=O)O[C@@H]3O1)c1ccc([N+](=O)[O-])cc1` [Compound 21, ((1S,4aS,5R,7aS)-8-oxo-1,4a,5,7a-tetrahydro-1,5-(epoxymethano)cyclopenta[c]pyran-3-yl)methyl 4-nitrobenzoate] gave an IC50 of over 20 µM.

With `O=C1O[C@@H]2OC(CI)=C[C@H]3[C@@H]2C=C[C@@H]13` [Compound 22, (1S,4aS,5R,7aS)-3-(iodomethyl)-1,4a,5,7a-tetrahydro-1,5-(epoxymethano)cyclopenta[c]pyran-8-one] the IC50 was over 20 µM.

With `O=C1O[C@@H]2OC(CBr)=C[C@H]3[C@@H]2C=C[C@@H]13` [Compound 23, (1S,4aS,5R,7aS)-3-(bromomethyl)-1,4a,5,7a-tetrahydro-1,5-(epoxymethano)cyclopenta[c]pyran-8-one] the IC50 was over 20 µM.

With `O=C1O[C@@H]2OC(CO)=C(Br)[C@H]3[C@@H]2C=C[C@@H]13` [Compound 24, (1S,4aS,5R,7aS)-4-bromo-3-(hydroxymethyl)-1,4a,5,7a-tetrahydro-1,5-(epoxymethano)cyclopenta[c]pyran-8-one] the IC50 was under 20 µM.

Work on `O=C1O[C@@H]2OC(CCl)=C[C@H]3[C@@H]2C=C[C@@H]13` [Compound 25, (1S,4aS,5R,7aS)-3-(chloromethyl)-1,4a,5,7a-tetrahydro-1,5-(epoxymethano)cyclopenta[c]pyran-8-one] yielded an IC50 of over 20 µM.
